Test results from patent US20230086099A1, “COMBINATION THERAPY FOR TREATMENT OF CANCER AND CANCER METASTASIS” (ONA Therapeutics, S.L., priority 2020, published 2023).

B1: ONA-0: anti-CD36 antibody ONA-0 (also known as ONA-0-v1; as described in U.S. Patent Application No. 63/117,529) (antibody)
heavy: QVQLKQSGADLVRPGASVKLSCKASGYTFTDYYINWVKQRPGQGLEWIARIYPGSGNTYYNEKFKGKATLTAEKSSSTAYMQLSSLTSEDSAVYFCARGIGGGFGMDYWGQGTSVTVSSESARNPTIYPLTLPPVLCSDPVIIGCLIHDYFPFGTMNVTWGKSGKDITTVNFPPALASGGRYTMSSQLTLPAVECPEGESVKCSVQHDSNPVQELDVNCSPTPPPPITIPSCQPSLSLQRPALEDLLLGSDASITCTLNGLRNPEGAAFTWEPSTGKDAVQKKAAQNSCGCYSVSSVLPGCAERWNSGASFKCTVTHPESGTLTGTIAKVTVNTFPPQVHLLPPPSEELALNELLSLTCLVRAFNPKEVLVRWLHGNEELSPESYLVFEPLKEPGEGATTYLVTSVLRVSAETWKQGDQYSCMVGHEALPMNFTQKTIDRLSGKPTNVSVSVIMSEGDGICY
light: SIVMTQTPKFLLVSAGDRITITCKASQSVSDDVAWYQQKPGQSPKLLIYYASNRYTGVPDRFTGSGYGTDFTFTISTVQAEDLAVYFCQQDYSSPLTFGAGTKLEIKRADAAPTVSIFPPSSEQLTSGGASVVCFLNNFYPKDINVKWKIDGSERQNGVLNSWTDQDSKDSTYSMSSTLTLTKDEYERHNSYTCEATHKTSTSPIVKSFNRNEC

Columns and labels:
[1] = test system: Detroit oral cancer cells; assay: Detroit oral cancer cells inoculated in NSG mice: anti-CD36 antibody with cisplatin; assay type: in vivo; conditions: lung metastases from oral cancer, H&E staining of the lungs; FIGS. 2, 3A-3B
Experimental: (§1) Studies on the combination of anti-CD36 antibody with cisplatin were performed in NSG mice (immuno-deficient) males and females (first experiment mice directly bought, follow up experiments in house breeding) All mice were inoculated with commercially available oral cancer cells Ab dosing was always done daily i.p.
(§2) Two types of oral cancer cell lines were inoculated: • Detroit: “medium” metastatic and very large primary tumor • FaDu: “very strong” metastatic and small primary tumor
(§3) 50,000 or 100,000 cancer cells were inoculated. The starting time of treatment was the amount of days after inoculation of the cancer cells Ab treatment starts.

[2] = test system: OVCAR-3 cells; assay: OVCAR-3 orthotopic mouse model of ovarian cancer; assay type: in vivo, NSG mice
Experimental: Studies of the effects of the combination of ONA-0 anti-CD36 antibody and cisplatin on ovarian cancer were performed in NSG mice (immuno-deficient). The studies included only female mice. All mice were inoculated with commercially available OVCAR-3 (ATCC) cancer cells. OVCAR-3 cells were derived from a human progressive adenocarcinoma of the ovary (i.e., from an ovarian cancer). Prior to inoculation, the OVCAR-3 cells were cultured in a humidified incubator at 37° C. with 5% CO2, and were grown in RPMI-1640 supplemented with 5 μg ml^−1 penicillin/streptomycin, 0.01 mg/ml bovine insulin and 20% FBS (GIBCO). For each mouse, a piece of an OVCAR-3 xenograft was implanted orthotopically. Treatment of the implanted mice began 23 days after implantation with the OVCAR-3 tumor pieces. Inoculated mice were divided into one of two treatment groups: cisplatin injection control (n=9) or cisplatin in combination with ONA-0 treatment (n=8). Antibody treatments were administered via intraperitoneal (i.p.) injection daily at a dose of 3 mg/kg and cisplatin treatments were administered via intraperitoneal (i.p.) injection twice per week at a dose of 2 mg/kg (FIG. 7B). Mice were sacrificed at the end of the treatment period. Upon sacrifice, organs and tissues were collected for performance of immunohistochemistry analysis.

[3] = test system: FaDu cell line (oral cancer cell line); assay: FaDu oral cancer cells inoculated in NSG mice: lymph node metastases, ONA-0 with cisplatin; assay type: in vivo
Experimental: as §1, §2, §3

| Molecule | lung metastases, size and number [1] | SR positive area (collagenous and fibrotic areas) of primary tumors ([2]; Sirius red staining, FIG. 9C) | primary tumor weight, average ([2]; at sacrifice, FIG. 9B) | percent necrosis of primary tumors ([2]; histology, blinded quantification by a pathologist, FIG. 9C) | percentage of mice with metastasis in the liver ([2]; macroscopic, visual inspection, FIG. 8A) | percentage of animals with metastasis in the peritoneal wall ([2]; macroscopic, visual inspection, ONA-0 3 mg/kg i.p. daily, cisplatin 2 mg/kg i.p. twice per week, FIG. 8A) | efficacy on lymph node metastases ([3]; study of FIGS. 4A-4E) | efficacy on lymph node metastasis ([3]; study of FIGS. 5A-5E and 6A-6B) |
| --- | --- | --- | --- | --- | --- | --- | --- | --- |
| N.N.[Cl][Pt][Cl] [cisplatin] | reduces the size of metastases | 27.45% | 0.468 grams | approximately 14.2% | 11% | 22% |  |  |
| B1 |  |  |  |  |  |  | demonstrates efficacy on lymph node metastases | effective as a monotherapy |
